Assay results taken from article doi:10.1101/2025.09.12.675753, “In search of nonlipogenic ABCA1 inducers (NLAI): precision coregulator TR-FRET identifies diverse signatures for LXR ligands” (bioRxiv, 2025).
“Also recorded” adds a separate entry of the source. Like-named read-outs stand apart in the source and are kept apart here.

How the values were obtained:
LXRβ [1] = biological target: T1, LXRβ (Homo sapiens, UniProt P55055); experiment: Multiplex precision CRT (pCRT), SRC1 and NCoR2, LXRβ; format: biochemical; set-up: NR-LBD with short coregulator peptides as used in the present work; purchased Thermo Fisher Scientific PV4660; details: SRC1-btn 200 nM, NCoR2-FL 200 nM
T1 sequence (P55055 222-460 limits assumed): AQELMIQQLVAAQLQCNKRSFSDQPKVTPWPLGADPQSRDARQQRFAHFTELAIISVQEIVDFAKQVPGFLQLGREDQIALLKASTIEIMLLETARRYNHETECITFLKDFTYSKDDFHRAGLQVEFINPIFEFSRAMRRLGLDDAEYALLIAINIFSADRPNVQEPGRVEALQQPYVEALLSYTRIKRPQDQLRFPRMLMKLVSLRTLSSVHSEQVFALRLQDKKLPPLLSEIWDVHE

mice = details: highest dose 30 mg/kg qd; cited from earlier work
[2] = test system: SRE promoter luciferase (SRE-luc) in HepG2 cells; experiment: SRE-luc reporter in HepG2 cells; format: cell-based, human; details: for SRE-luc response: HepG2, normalized to T0
From the text: Our phenotypic high throughput screen (HTS) approach to identify nonlipogenic ABCA1 Inducers (NLAI) originally used counterscreening with a SREBP1c-luciferase reporter (linked to the SREBF1 gene promoter) in human hepatocarcinoma HepG2 cells.[81] Unwanted lipogenesis is mediated by LXR agonists via direct transcriptional activation and indirectly by the effects of SREBP1c.[57] [109] SREBP1c enhances transcription of genes required for synthesis of fatty acids and TG and as the dominant isoform in liver is associated most closely with lipogenesis and TG elevation.[109] […] Binding of SREBP1c to the sterol response element (SRE) induces transcription of lipogenic genes associated with elevated TG. To better model the lipogenic axis in hepatocytes, we use HepG2 cells stably transfected with a luciferase reporter downstream of a SRE promoter (SRE-luc), activation of which requires SREBP1c maturation.
HepG2 cells were cotransfected with SRE (LDLR)-NlucP SuperPiggyBac Transposon and a separate Transposase plasmid (System Biosciences). Cells were expanded for multiple passages followed by selection with puromycin (1ug/ml). Stable cells constitutively express GFP allowed for FACS enrichment and/or cell cloning. Initially, stable pools were compared to low expressing and high expressing enriched pools. The optimal pool was selected based on assay performance (Z’) and was grown and maintained as above, with the addition of 1.0 μg/mL of puromycin biweekly.

LXRα [3] = biological target: T2, LXRα (Homo sapiens, UniProt Q13133); experiment: Corepressor (NCOR2, SMRT2) binding CRT, LXRα; details: absence of coactivator
T2 sequence (Q13133 209-447 limits assumed): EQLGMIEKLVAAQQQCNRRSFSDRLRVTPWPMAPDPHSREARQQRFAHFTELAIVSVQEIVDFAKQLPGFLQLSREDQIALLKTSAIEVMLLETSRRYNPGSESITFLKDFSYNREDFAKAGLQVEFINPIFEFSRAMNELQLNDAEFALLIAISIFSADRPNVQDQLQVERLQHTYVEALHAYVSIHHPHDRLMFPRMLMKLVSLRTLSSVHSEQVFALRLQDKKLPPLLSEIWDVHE

LXRα [4] = biological target: T2, LXRα
[5] = test system: ABCA1-promoter luciferase in CCF-STTG1 cells; experiment: ABCA1-luc reporter in CCF-STTG1 astrocytoma cells; format: cell-based, human; details: for ABCA1-luc response: 24 hr incubation, normalized to T0 (100%)
From the text: Astrocytoma CCF-STTG1 cells, stably transfected with an ABCA1-promoter linked to a luciferase response element provide a model for ABCA1 induction in astrocytes.[81] […] Apparent inverse agonist activity in cell-based assays can result from true inverse agonist recruitment of corepressors or from antagonist activity towards endogenous sterol LXR agonists. Although we use serum stripped media, antagonism of endogenous LXR agonists cannot be ruled out.
Low passage CCF-STTG1 cells (20,000 cells/well) were seeded in 96-well plates in media containing charcoal-stripped FBS and incubated at 37 °C and 5% CO2 for 24 hours prior to a 24-hour treatment. All compounds were dissolved in DMSO, and final DMSO concentrations never exceeded 1%. After a 24-hour incubation period, add a volume of ONE-GLO™EX Reagent that is equal to the volume of culture medium in each well and incubate for 3 to 5 minutes on the shaker. The luminescent activity of compounds ([…], 10-fold dilution) was examined using the ONE-GLO™EX assay (Promega). The data was normalized to DMSO. The assays were performed in duplicates for each concentration, and the EC50 values were determined from non-linear regression analysis of the dose-response curve generated in GraphPad Prism 9.

LXRβ [6] = biological target: T1, LXRβ; experiment: Corepressor (NCOR2, SMRT2) binding CRT, LXRβ
E3/4FAD mice = details: cited from earlier work
LXRα [7] = biological target: T2, LXRα; details: for SRC-1 recruitment to LXRα, efficacy relative to T0: ligand alone, normalized to T0 (100%); for Effect on 24HC agonism at LXRα: in the presence of 24HC (3 μM)
[8] = test system: high-fat diet (HFD) mouse model; details: cited from earlier work
obese mice on HFD = details: cited from earlier work
[9] = test system: mouse model of non-alcoholic steatohepatitis (NASH); details: cited from earlier work
LXR = experiment: CRT signature categorization, heat map of response at 1 μM; format: biochemical; details: signatures of Table 1
From the text: With the knowledge that corepressors bind to the apo-receptor; whereas coactivator binding requires a ligand-induced conformational change, we can categorize all ligands using their CRT profiles: ligands induce 3 conformations with CoR (destabilizing D, stabilizing S, neutral N) and only 2 conformations with CoA (stabilizing S, neutral N) (Table 1).
To determine which LXR ligands fit with these theoretical CRT signatures, concentration-response curves were interpolated to measure normalized response at 1 μM ligand concentration and plotted as a heat map (Figs 9A, S8).
The CRT signatures of the three agonist and three antagonist classifications were modelled in the same heat map using signatures defined in Table 1 and the measured responses to the real LXR ligands in our study.

[10] = test system: SREBF1, FAS, and SCD1 in HepG2 cells; experiment: RT-PCR of lipogenic genes in HepG2 cells; format: cell-based, human; details: HepG2, 24 hours
Procedure: Owing to the anomalous response in the reporter assay, we measured lipogenic genes, SREBF1, FAS, and SCD1 by RT-PCR in HepG2 cells in response to treatment with the biphenyl sulfones (Figs 5G–I).
HepG2 cells were seeded in 12-well plates and treated with compounds for 24 hours. Following treatment, cells were washed once with PBS and then lysed in 350 μL of RLT buffer (Qiagen). Lysates were immediately frozen at −80 °C until RNA extraction. Total RNA was extracted using RNeasy Plus Mini columns (Qiagen) according to the manufacturer’s instructions. RNA concentration and purity were assessed using the A260/A280 ratio measured on a Synergy Neo2 plate reader (BioTek). For cDNA synthesis, 2 μg of total RNA was reverse transcribed using SuperScript III reverse transcriptase (Invitrogen), oligo(dT)12–18 primers, and dNTP mix, following the manufacturer’s protocol. Quantitative PCR was performed using TaqMan Gene Expression Master Mix (Invitrogen) with 2 μL of cDNA and gene-specific TaqMan probes in a 20 μL reaction volume per well. The following TaqMan assays were used: ABCA1: Hs01059101_m1, SREBF1: Hs01088691_m1, SCD: Hs01682761_m1, FASN: Hs01005622_m1, and HPRT1 (endogenous control): Hs02800695_m1. qPCR was performed on a StepOne Real-Time PCR System (Applied Biosystems), and gene expression was quantified using the ΔΔCt method.

LXRβ [11] = biological target: T1, LXRβ
[12] = cited from earlier work
primates = test system: primates; set-up: method as in PMID 19318684; details: 50 mg/kg/day p.o., returned to baseline at day 7; cited from earlier work
hamsters = test system: hamsters; set-up: method as in PMID 19318684; details: cited from earlier work
participants = test system: participants; set-up: method as in PMID 19398602; details: 300 mg dose; cited from earlier work
NASH mouse model = details: cited from earlier work

## CC(C)(O)c1cn(-c2ccc(-c3cccc(S(C)(=O)=O)c3)cc2)c(C(C)(C)c2ccccc2Cl)n1 [XL652]
LXRβ [1]
  NCOR2 displacement from LXRβ in the presence of SRC1 (pCRT): fully displaced
mice
  Plasma triglycerides: elevated plasma triglycerides only at the highest dose
[2]
  SRE-luc response: anomalous activation of SRE at concentrations above 1 μM; also recorded: little or no activation of SRE at submicromolar concentrations
[2]; concentrations ≤ 1 μM
  Efficacy of SRE activation: 20–25 % of T0
LXRα [3]
  Corepressor (NCOR2 and SMRT2) binding to LXRα, ligand effect: strongly stabilized the corepressor-bound conformation
  SMRT2 binding to LXRα, ligand effect: stabilization of SMRT2 corepressor binding to LXRα
LXRα [4]
  Recruitment of coactivator TRAP220 to LXRα: very minimal recruitment
[5]; versus XL041
  Weaker potency for ABCA1 induction compared to XL041: more than 100 fold
LXRβ [6]; absence of coactivator
  NCOR2 binding to LXRβ, ligand effect: weakly destabilized the NCOR2 complex with both LXR isoforms
  SMRT2 binding to LXRβ, ligand effect: did not perturb SMRT2 binding to LXRβ

## CCOC(=O)c1cc(Cl)cc(NC(=O)c2sc(Cl)cc2S(=O)(=O)N(C)c2ccc(OCC)c(OC)c2)c1 [CL3–3]
E3/4FAD mice
  ABCA1 expression, APOE lipidation, AD phenotypes, TG: increased ABCA1 expression, enhanced APOE lipidation and reversed multiple AD phenotypes, without increasing TG
LXRα [7]
  SRC-1 recruitment to LXRα, efficacy relative to T0: partial agonist activity at LXRα
LXRα [4]
  Recruitment of coactivator TRAP220 to LXRα: very minimal recruitment

## CCOC(=O)c1cccc(NC(=O)c2sc(Cl)cc2S(=O)(=O)N(C)c2ccc(OCC)c(OCC)c2)c1 [CL2–57]
[2]; Homo sapiens, HepG2 SRE-luc, read-out: EC50, SRE activation
  EC50: 2.8 µM
[8]
  Plasma and hepatic TG levels: attenuated diet-induced increases in plasma and hepatic TG levels
LXRα [4]
  Recruitment of coactivator TRAP220 to LXRα: very minimal recruitment

## CCOC(=O)c1ccc(CN(Cc2ccc(-c3cccc(S(C)(=O)=O)c3)cc2)S(=O)(=O)c2c(C)cc(C)cc2C)o1 [SR9238]
Obese mice on HFD
  Plasma TG: plasma TG was suppressed
[9]
  Hepatic inflammation and fibrosis: significantly reduced hepatic inflammation and fibrosis
[2]
  SRE-luc response: anomalous activation of SRE at concentrations above 1 μM; also recorded: lowered SRE activation below baseline; also recorded: neutral or antagonist response; also recorded: inverse agonist at < 3 μM concentration
LXR
  CRT signature category: IA (inverse agonist (IA))
LXRα [7]
  Effect on 24HC agonism at LXRα: without effect on LXRα
  SRC-1 recruitment to LXRα, efficacy relative to T0: neither ligand stabilized the LXR:SRC1 complex alone
LXRα [3]
  Corepressor (NCOR2 and SMRT2) binding to LXRα, ligand effect: strong agonist responses
[5]
  ABCA1-luc response: inverse agonist activity in cells
[10]
  Lipogenic gene transcription (SREBF1, FAS, SCD1) by RT-PCR: reducing lipogenic gene transcription below baseline
LXRβ [6]; absence of coactivator
  Corepressor (NCOR2 and SMRT2) binding to LXRβ, ligand effect: strong agonist responses
LXRβ [11]; in the presence of 24HC (3 μM)
  Effect on 24HC agonism at LXRβ: antagonized the agonism of 24HC at LXRβ
LXRβ [11]; ligand alone, normalized to T0 (100%)
  SRC-1 recruitment to LXRβ, efficacy/potency relative to T0: neither ligand stabilized the LXR:SRC1 complex alone
[12]
  Metabolic lability / systemic availability: metabolically labile

## Fc1ccc(-c2c3cccc(C(F)(F)F)c3nn2Cc2ccc(F)cc2Cl)cc1 [LXR-623]
primates
  Liver TG: significant increase in liver TG was observed but only at high dose
hamsters
  Plasma TG: did not cause a dose-dependent increase in plasma TG
participants
  Adverse effects: all 6 participants on the highest 300 mg dose reported neurologic or psychiatric adverse effects

## Cc1cc(C)c(S(=O)(=O)N(Cc2ccc(-c3cccc(S(C)(=O)=O)c3)cc2)Cc2ccc(C(F)(F)F)o2)c(C)c1 [GSK2033]
[2]
  SRE-luc response: neutral or antagonist response; also recorded: mixed antagonist/inverse agonist phenotype
LXR
  CRT signature category: HA (hard antagonist (HA))
LXRα [7]
  Effect on 24HC agonism at LXRα: without effect on LXRα
  SRC-1 recruitment to LXRα, efficacy relative to T0: neither ligand stabilized the LXR:SRC1 complex alone
LXRα [3]
  Corepressor (NCOR2 and SMRT2) binding to LXRα, ligand effect: does not stabilize a conformation that disrupts corepressor binding to LXRα
[5]
  ABCA1-luc response: inverse agonist activity in cells; also recorded: mixed antagonist/inverse agonist phenotype
[10]
  Lipogenic gene transcription (SREBF1, FAS, SCD1) by RT-PCR: reducing lipogenic gene transcription below baseline
LXRβ [6]
  SMRT2 binding to LXRβ, ligand effect: selectively displace SMRT2 from LXRβ
NASH mouse model
  Expression of lipogenic genes, including FAS and SREBP1c: increased rather than suppressed
LXRβ [11]
  Effect on 24HC agonism at LXRβ: antagonized the agonism of 24HC at LXRβ
  SRC-1 recruitment to LXRβ, efficacy/potency relative to T0: neither ligand stabilized the LXR:SRC1 complex alone
